{"source": "patent US8859491B2", "about": "(priority 2011, dated 2014)", "key": {"[1]": {"assay": "Administration of GLP-1 conjugates to ovariectomized mice (FIGS. 13, 14)", "assay_type": "in vivo"}, "[2]": {"assay": "Example 29: DIO mice, 400 μg/kg sc daily for seven days", "assay_type": "in vivo"}, "[3]": {"assay": "Administration of GLP-1 conjugates to mice, model not stated (FIGS. 15, 19)", "assay_type": "in vivo", "conditions": "vs GLP-1 agonist alone or GLP-1 agonist/Estrogen(3-ester) conjugate"}, "[4]": {"assay": "Example 30: DIO wild type, ERβ KO and ERα KO mice, 400 μg/kg sc daily for two weeks", "assay_type": "in vivo", "quoted_text": "Diet-induced obesity wild type mice, estrogen receptor beta knock-out (ERβ KO) mice, and estrogen receptor alpha knock-out (ERα KO) mice were administered subcutaneous injections once per day for two weeks with vehicle or 400 μg/kg of one of the following:"}, "[5]": {"assay": "Example 25: ovariectomized C57BI/6 mice, 4000 μg/kg sc daily for 7 days", "assay_type": "in vivo"}, "[6]": {"assay": "Example 27: DIO mice, sc daily for two weeks", "assay_type": "in vivo", "method": "Diet induced obesity mice were administered subcutaneous injections once per day for two weeks with vehicle or 40 or 400 μg/kg of one of the following: […]"}, "[7]": {"assay": "Example 16: mice on diabetic diet for 9 months, sc dosing", "assay_type": "in vivo", "conditions": "low daily dose, 7 days"}, "[8]": {"assay": "Example 20: DIO mice, sc daily", "assay_type": "in vivo", "conditions": "7 days", "method": "Diet induced obesity mice (DIO) (N=8, average body weight 61 g) were administered subcutaneous injections once per day for one or two weeks with vehicle or 40, 400, 1200, or 4000 μg/kg of one of the following: […]"}, "[9]": {"assay": "Example 19: mice, sc daily for one week", "assay_type": "in vivo", "conditions": "between days 0 and 7", "method": "Mice (N=8, average body weight 55 g) were administered subcutaneous injections once per day for one week with vehicle or one of the following:\nBody weight was measured after 7 days and the change in body weight was determined (FIG. 8a). There was little apparent difference in body weight lowering at these doses for the peptides with and without the estrogen."}, "glucocorticoid receptor": {"molecular_target": "T1, glucocorticoid receptor (Homo sapiens, UniProt P04150)", "T1 construct": "two clones of HeLa cells (ATCC #CCL-2) transfected with murine mammary tumor virus long terminal repeat-driven firefly luciferase; host or cells: HeLa", "T1 sequence (P04150 1-777)": "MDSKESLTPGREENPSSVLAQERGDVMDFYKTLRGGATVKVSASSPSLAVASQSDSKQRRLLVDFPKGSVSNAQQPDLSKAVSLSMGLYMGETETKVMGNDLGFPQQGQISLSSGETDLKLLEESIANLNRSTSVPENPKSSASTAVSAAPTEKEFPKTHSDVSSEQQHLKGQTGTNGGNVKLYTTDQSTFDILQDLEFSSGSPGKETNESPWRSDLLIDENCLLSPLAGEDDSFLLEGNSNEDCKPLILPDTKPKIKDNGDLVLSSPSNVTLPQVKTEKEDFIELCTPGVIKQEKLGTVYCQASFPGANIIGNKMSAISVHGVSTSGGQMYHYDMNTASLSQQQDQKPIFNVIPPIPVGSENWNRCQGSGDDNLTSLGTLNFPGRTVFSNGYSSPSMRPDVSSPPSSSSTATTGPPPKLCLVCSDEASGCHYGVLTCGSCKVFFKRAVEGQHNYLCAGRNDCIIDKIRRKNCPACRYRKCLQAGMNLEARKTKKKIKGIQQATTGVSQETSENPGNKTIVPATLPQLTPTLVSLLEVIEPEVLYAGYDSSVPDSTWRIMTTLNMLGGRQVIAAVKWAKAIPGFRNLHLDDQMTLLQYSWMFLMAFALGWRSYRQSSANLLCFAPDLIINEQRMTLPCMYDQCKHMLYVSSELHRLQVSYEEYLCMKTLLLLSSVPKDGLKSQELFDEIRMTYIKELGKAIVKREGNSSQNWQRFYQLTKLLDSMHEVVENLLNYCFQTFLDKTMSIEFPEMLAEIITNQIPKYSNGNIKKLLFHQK", "assay": "Glucocorticoid receptor luciferase reporter gene assay in HeLa cell clones (MMTV-LTR luciferase)", "assay_type": "cell-based", "conditions": "Example 37; two HeLa reporter clones; compared with unconjugated dexamethasone", "method": "The activities of the peptide conjugates in Examples 32 and 33 at the glucocorticoid receptor were tested in the luciferase reporter gene assay using two clones of HeLa cells (ATCC #CCL-2) transfected with murine mammary tumor virus long terminal repeat-driven firefly luciferase."}, "[10]": {"assay": "Example 17: DIO mice, 40 μg/kg sc daily for one week", "assay_type": "in vivo", "conditions": "between days 0 and 7", "method": "Diet-induced obesity (DIO) mice (N=8, average initial body weight=65 g) were subcutaneously injected once per day for one week with vehicle or 40 μg/kg one of the following:\nBody weight was measured after 7 days and the change in body weight and the fat mass were determined (FIG. 6a-b). […] The analysis of fat mass (FIG. 6b) was relatively constant with total loss in body weight."}, "GLP-1 receptor [11]": {"molecular_target": "T2, GLP-1 receptor (Homo sapiens, UniProt P43220)", "T2 construct": "expressed in transfected cells; host or cells: HEK293", "T2 sequence (P43220 24-463, species assumed)": "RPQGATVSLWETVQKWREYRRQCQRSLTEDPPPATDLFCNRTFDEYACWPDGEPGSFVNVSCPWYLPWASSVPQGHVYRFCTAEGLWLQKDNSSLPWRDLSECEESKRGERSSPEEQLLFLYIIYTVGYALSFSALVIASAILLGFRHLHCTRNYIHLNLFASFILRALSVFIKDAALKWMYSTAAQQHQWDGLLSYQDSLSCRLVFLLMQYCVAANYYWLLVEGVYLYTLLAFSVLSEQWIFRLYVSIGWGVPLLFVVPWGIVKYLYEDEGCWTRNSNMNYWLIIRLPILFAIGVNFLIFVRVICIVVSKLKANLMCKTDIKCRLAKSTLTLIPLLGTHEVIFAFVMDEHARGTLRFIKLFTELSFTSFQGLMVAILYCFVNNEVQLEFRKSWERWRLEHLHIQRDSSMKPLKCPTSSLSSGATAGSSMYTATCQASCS", "assay": "GLP-1 Binding, [I125]-GLP-1 SPA with receptor membrane extracts"}, "GLP-1 receptor [12]": {"molecular_target": "T2, GLP-1 receptor", "assay": "GLP-1 Activity (cAMP induction), CRE-luciferase reporter in HEK293 cells", "assay_type": "cell-based", "method": "(§1) Luminescence was measured after cell lysis and incubation with luciferin.\nas §1, §1"}, "[13]": {"assay": "Example 21: mice on diabetic diet, sc daily for one week", "assay_type": "in vivo", "conditions": "between days 0 and 7"}, "GLP-1 receptor [14]": {"molecular_target": "T2, GLP-1 receptor", "assay": "cAMP induction, firefly luciferase reporter assay in HEK293 cells, GLP-1 receptor", "assay_type": "cell-based", "conditions": "GLP-1 receptor versus glucagon receptor", "method": "The ability of each peptide to induce cAMP was measured in a firefly luciferase-based reporter assay. […] HEK293 cells co-transfected with the receptor and luciferase gene linked to a cAMP responsive element were employed for the bioassay.\nAt the end of the incubation, 100 μL of LucLite luminescence substrate reagent (Perkin Elmer, Wellesley, Mass.) were added to each well. […] All EC50s and IC50s are reported in the following examples in nM, unless indicated otherwise."}}, "note": "Non-standard residues stand in square brackets, D forms with d. No end group written: not given here. *: point of attachment. β‑estradiol 3‑ether = C[C@]12CC[C@@H]3c4ccc(O*)cc4CC[C@H]3[C@@H]1CC[C@@H]2O; Aib = CC(C)(N)C(=O)O", "data": [{"compound": "GLP-1 agonist/Estrogen(3-ether): active, estrogen-stable GLP-1 agonist/Estrogen(3-ether) conjugate (H[Aib]EGTFTSDVSSYLEEQAAKEFIAWLVKGGPSSGAPPPSK(β‑estradiol 3‑ether)-NH2)", "values": [{"measurement": "fat mass", "setting": "[1]; FIG. 13b", "result": "decrease in fat mass"}, {"measurement": "blood glucose levels", "setting": "[1]; FIG. 13d", "result": "decrease in blood glucose levels greater than vehicle"}, {"measurement": "change in body weight", "setting": "[1]; vs GLP-1 agonist alone and the inactive d-amino acid conjugates, FIG. 13a", "result": "greater decrease"}, {"measurement": "food intake", "setting": "[1]; vs GLP-1 agonist alone and the inactive d-amino acid conjugates, FIG. 13c", "result": "consumed less food"}, {"measurement": "change in body weight", "setting": "[2]; after 7 days", "result": "greatest decrease in body weight"}, {"measurement": "change in blood glucose", "setting": "[2]; over 7 days", "result": "decrease in blood glucose levels over 7 days, with the decrease greater in mice that were administered the conjugate"}, {"measurement": "change in body weight", "setting": "[3]; FIG. 15a", "result": "significantly greater decrease"}, {"measurement": "cumulative food intake", "setting": "[3]; FIG. 15b", "result": "significantly less food"}, {"measurement": "decrease in body weight", "setting": "[4]; ERα KO mice, two weeks", "result": "~20", "unit": "%"}, {"measurement": "decrease in body weight", "setting": "[4]; ERβ KO mice, two weeks", "result": "~15", "unit": "%"}, {"measurement": "cumulative food intake", "setting": "[4]; knock-out mice", "result": "consumed the least amount of food"}, {"measurement": "decrease in body weight", "setting": "[4]; wild type DIO mice, two week period", "result": "~10", "unit": "%"}, {"measurement": "change in blood glucose", "setting": "[5]; 4000 μg/kg", "result": "decrease in blood glucose levels greater than vehicle"}, {"measurement": "fat mass", "setting": "[5]; 4000 μg/kg", "result": "decrease in fat mass"}, {"measurement": "change in body weight", "setting": "[5]; 4000 μg/kg, after 7 days", "result": "greater decrease in body weight"}, {"measurement": "cumulative food intake", "setting": "[5]; 7 days", "result": "consumed less food"}, {"measurement": "change in body weight", "setting": "[6]; 40 or 400 μg/kg, after 15 days", "result": "significantly greater decrease in body weight"}, {"measurement": "cumulative food intake", "setting": "[6]; 15 days", "result": "consumed significantly less food"}]}, {"compound": "GLP-1(Aib^2E^16C^24(PEG-40 kDa)Cex K^40): GLP-1 analog PEGylated (40 kDa) at Cys24 (H[Aib]EGTFTSDVSSYLEEQAAKEFIC(PEG 40 kDa thioether)WLVKGGPSSGAPPPSK-NH2)", "values": [{"measurement": "cumulative food intake", "setting": "[7]", "result": "consumed the least amount of food"}]}, {"compound": "GLP-1(Aib^2E^16Cex K^40)/Estrogen(3-ester): E16 GLP-1 analog conjugated to estrogen by 3-ester (H[Aib]EGTFTSDVSSYLEEQAAKEFIAWLVKGGPSSGAPPPSK-NH2; not fully specified (residue 40))", "values": [{"measurement": "cumulative food intake", "setting": "[8]", "result": "consumed significantly less food than mice that were administered GLP-1 alone"}, {"measurement": "change in blood glucose levels", "setting": "[9]", "result": "greatest change in blood glucose levels"}]}, {"compound": "[Aib2, E16]GLP-1-CEX-Lys40(NHCO—O-DEX)", "values": [{"measurement": "agonist activity at the glucocorticoid receptor", "setting": "glucocorticoid receptor", "result": "retained the greatest amount of activity at the glucocorticoid receptor"}]}, {"compound": "GLP-1(Aib^2E^16Cex K^40)/Estrogen(17-ester): E16 GLP-1 analog conjugated to estrogen by 17-ester (H[Aib]EGTFTSDVSSYLEEQAAKEFIAWLVKGGPSSGAPPPSK-NH2; not fully specified (residue 40))", "values": [{"measurement": "change in blood glucose", "setting": "[10]", "result": "greatest change in blood glucose"}]}, {"compound": "CC[C@H](C)[C@H](NC(=O)[C@H](Cc1ccccc1)NC(=O)[C@H](CCC(=O)O)NC(=O)[C@H](CCCCN)NC(=O)[C@H](C)NC(=O)[C@H](C)NC(=O)[C@H](CCC(N)=O)NC(=O)[C@H](CCC(=O)O)NC(=O)[C@H](CCC(=O)O)NC(=O)[C@H](CC(C)C)NC(=O)[C@H](Cc1ccc(O)cc1)NC(=O)[C@H](CO)NC(=O)[C@H](CO)NC(=O)[C@@H](NC(=O)[C@H](CC(=O)O)NC(=O)[C@H](CO)NC(=O)[C@@H](NC(=O)[C@H](Cc1ccccc1)NC(=O)[C@@H](NC(=O)CNC(=O)[C@H](CCC(=O)O)NC(=O)C(C)(C)NC(=O)[C@@H](N)Cc1c[nH]cn1)[C@@H](C)O)[C@@H](C)O)C(C)C)C(=O)N[C@@H](C)C(=O)N[C@@H](Cc1c[nH]c2ccccc12)C(=O)N[C@@H](CC(C)C)C(=O)N[C@H](C(=O)N[C@@H](CCCCN)C(=O)NCC(=O)NCC(=O)N1CCC[C@H]1C(=O)N[C@@H](CO)C(=O)N[C@@H](CO)C(=O)NCC(=O)N[C@@H](C)C(=O)N1CCC[C@H]1C(=O)N1CCC[C@H]1C(=O)N1CCC[C@H]1C(=O)N[C@@H](CO)C(=O)N[C@@H](CCCCNC(=O)COc1ccc2c(c1)CC[C@@H]1[C@@H]2CC[C@]2(C)[C@@H](O)CC[C@@H]12)C(N)=O)C(C)C", "note": "[GLP-1/Estrogen(3-ether)]", "values": [{"measurement": "IC50", "setting": "GLP-1 receptor [11]", "result": "0.717 ± 0.135", "unit": "nM"}, {"measurement": "EC50", "setting": "GLP-1 receptor [12]", "result": "0.012 ± 0.003", "unit": "nM"}]}, {"compound": "SEQ ID NO: 1659: GLP-1 based glucagon superfamily peptide conjugated to estradiol or estrone through a hydrolyzable linkage ([dA][Aib][dE]G[dT][dF][dT][dS][dD][dV][dS][dS][dY][dL][dE]G[dQ][dA][dA][dK][dE][dA][dI][dA][dW][dL][dV][dK]GG[dP][dS][dS]G[dA][dP][dP][dP][dS]K-NH2; not fully specified (residue 40))", "values": [{"measurement": "change in blood glucose levels", "setting": "[13]", "result": "greater change in blood glucose levels"}]}, {"compound": "SEQ ID NO: 22: glucagon analog generated by substituting the native glutamine at position 3 with glutamic acid", "values": [{"measurement": "selectivity for the GLP-1 receptor", "setting": "GLP-1 receptor [14]", "result": "approximately a tenfold selectivity"}]}]}
